What is called IC50 is the point on the concentration scale where inhibition reaches its midpoint.

The subject of assay [1] is human lung cancer cell line A549. Put plainly: CCK-8 antiproliferative assay, A549. The assay is classed as cell-based. To be noted: Homo sapiens, A549; CCK-8, 48 h, mean ± SD of three experiments. As to the method:
(§1) The antiproliferative activities of target compounds were examined by CCK-8 assay in three cancer cells (human lung cancer cell line A549, human mammary gland tumour cell line MCF-7 and human TNBC cell line MDA-MB-231) and one normal cell (human normal breast cell line MCF10A). All cell lines were sourced from KeyGEN Biotech, […], China, and a standard DMEM medium was applied to all cell cultures then subjected to 24 h incubation at 37 °C in a humidified environment with 5% CO2. After that logarithmic growing cells were plated on 96-well plates with 8,000 cells per well in a […] medium for 24 h incubation at 37 °C with 5% CO2. The DMEM medium with bovine serum was removed from each well. Then, prerequisite target compounds and positive controls were added to different cell lines in a predetermined concentration regiment for 48 h culture.
For orientation: Tetrazolium assays rely on reduction of a dye to a coloured formazan, in cell work by metabolically active cells.

Assay [2] concerns MDA-MB-231 cells. Put plainly: Cell apoptosis assay (annexin V-FITC/PI, flow cytometry). The assay is classed as cell-based, human. The note with it: 72 h, negative control 5.98%. Here is the method: This assay was performed on 6-well plates with 200,000 MDA-MB-231 cells per well and incubated for 24 h at 37 °C with 5% CO2, then the medium from each well was removed and treated by 7Cc in different concentrations (0, 0.41, 0.82, 1.64 μM) for additional 72 h incubation. Subsequently, 500 μL of binding buffer was applied to suspend and collect compound treated cells. Then, 5 μL of both annexin V-fluorescein isothiocyanate (Annexin V-FITC) and propidium iodide (PI) was applied to the mixture and this reaction was placed under total dark at room temperature for 10 min. Cell apoptosis was examined by flow cytometry.
For orientation: In flow cytometry, cells or beads pass a laser one at a time.

The subject of assay [3] is human TNBC cell line MDA-MB-231. Briefly: CCK-8 antiproliferative assay, MDA-MB-231. The assay is classed as cell-based. As to the method: as §1
Assay [4] concerns MDA-MB-231 cells. Put plainly: Mitochondrial membrane potential assay (JC-1, flow cytometry). The assay is classed as cell-based, human. To be noted: 48 h, control 3.67%. As to the method:
Briefly, MDA-MB-231 cells in logarithmic growth were placed in 6-well plates with 200,000 cells per well for 24 h before a medium remove and then incubated with 7Cc at predetermined concentrations (0, 0.41, 0.82, 1.64 μM) for 48 h. Cells were collected after and washed with PBS. JC-1 dye was added to cells for staining under total dark conditions according to the manufacturer's instructions (KGA601, KeyGEN Biotech, Nanjing, China). The percentage of cells with collapsed mitochondrial membrane potentials was detected by flow cytometry.

Assay [5] relates to MDA-MB-231 cells. Briefly: Cell cycle analysis (PI staining, flow cytometry). The note with it: 72 h; for share of S phase in cell cycle: control 45.39%. The assay is classed as cell-based, human. Here is the method: This assay was conducted on 6-well plates with 200,000 MDA-MB-231 cells per well and incubated for 24 h at 37 °C with 5% CO2, then the medium from each well was removed and treated by 7Cc in different concentrations (0, 0.41, 0.82, 1.64 μM) for additional 72 h incubation. The desired cell suspension was acquired after attached cells were digested then collected and washed in terms. Cell suspension was then subjected to fixation via 70% ethanol and washed with phosphate-buffered solution (PBS), incubated with 100 μL Rnase A, and placed on water bathed for half an hour at 37 °C. For the final step, 400 μL PI was applied to the mixture in a dark environment at 4 °C for 30 min. Then the distribution of DNA content was measured by flow cytometry (FACS Calibur Becton-Dickinson, Franklin Lake, NJ).

Assay [6] concerns MDA-MB-231 cells. Briefly: Comet assay (DNA damage). To be noted: 0.41, 0.82, 1.64 μM, 72 h, MDA-MB-231, neutral comet assay. The assay is classed as cell-based, human. Here is the method: All DNA damage sustained in this assay was measured via Comet Assay Kit (Keygen, Nanjing, China) according to the manufacturer’s instructions. 7Cc was added to MDA-MB-231 cells at predetermined concentrations (0, 0.41, 0.82, 1.64 μM) for 72 h. These cells were then collected and fixed on CometSlide at 4 °C for 15 min. After that, the cells were set under lysis solution at 4 °C for 90 min and these slides were electrophoresed for 20 min, fixed in ethanol for 5 min, and then stained with Vista Green DNA Dye. The final results were acquired by a fluorescence microscope.

Assay [7] relates to human mammary gland tumour cell line MCF-7. Briefly: CCK-8 antiproliferative assay, MCF-7. The assay is classed as cell-based. Here is the method:
as §1

Assay [8] is described as follows: Griess assay, NO-releasing capacity. To be noted: 10^−4 mol/l compound, L-cysteine, 37 °C. Here is the method: The NO-releasing capacity of each target compound was determined by the colorimetric method under the instructions of the manufacturer. Preparation of standard curves of 0, 1.56, 3.13, 6.25, 12.5, 25, 50 and 100 μmol/L nitrite nitrogen series standard solution was prepared. 50 μL to 96-well plate was added respectively and then mixed with 50 μL Griess I and Griess II; the absorption value was measured at 540 nm wavelength. A standard curve was drawn from the obtained data. Compounds were formulated into 10^−4 mol/l with PBS (pH = 7.4) and pharmaceutical DMSO. The newly formulated L-cysteine solution 100 μL ([…]) was added and incubated at 37 °C for 15, 30, 45, 60, 90, 120, 150 and180 min, respectively. Griess I and II recovered to room temperature, 50 μL of compounds 7A–E(a–c) were added respectively into the 96-well plate, and then 50 μL of Griess I and 50 μL of Griess II were added in sequence, with the absorbance tested at 540 nm. The amount of NO released was then calculated according to the standard curve.

Assay [9] has as its system MDA-MB-231 cells. Briefly: Wound healing assay. The assay is classed as cell-based, human. To be noted: 0.41, 0.82, 1.64 μM, 24 h. As to the method: In this assay, 6-well plates with 200,000 cells per well were used for the culture of MDA-MB-231 cells at 37 °C for 24 h and the medium of each well was removed. Then, 7Cc at predetermined concentrations (0, 0.41, 0.82, 1.64 μM) was added to the cell culture for incubation. After that, sterile pipette tips were utilised to scratch cell culture in 6-well plates in an even fashion, and detached cells were washed away by PBS with culture medium replaced anew afterward. After 24 h of additional incubation, cell cultures were photographed and migration distance examined accurately.

Assay [10] deals with human normal breast cell line MCF10A. Put plainly: CCK-8 assay, normal cells MCF10A. The assay is classed as cell-based. To be noted: MCF-10A, CCK-8, 48 h, mean ± SD of three experiments. As to the method: as §1
In assay [11] the test system is MDA-MB-231 cells. Briefly: Adhesion assay. The assay is classed as cell-based, human. The note with it: 0.41, 0.82, 1.64 μM, 72 h, dose-dependent. Here is the method:
MDA-MB-231 cells were incubated in different plates and then treated with 7Cc in different concentrations (0, 0.41, 0.82, 1.64 μM) for 72 h. After that, the CAM ([…]) stain treated serum-free medium was applied and 96-well plates were seeded with 100 μL already prepared cell suspension at 2,000 cells per good concentration for an hour. Then, plates were washed by PBS, fixed via 3.7% formaldehyde, another PBS wash, and photographed by fluorescence microscope.

Assay [12] deals with MDA-MB-231 cells. Briefly: Transwell assay. The assay is classed as cell-based, human. To be noted: 0.41, 0.82, 1.64 μM, 24 h, concentration-dependent. As to the method:
Then, cells attached to the upper surface of the membrane were removed while migrated or invaded cells of the lower membrane surface were added 0.1% crystal violet staining for 30 min. Then, migrated or invaded cells of the lower chamber were photographed and counted.

Structures are written as SMILES.

As for `COC1=CC2[C@H]3Cc4ccc(OC)c(OC(=O)c5ccccc5C(=O)OCCCCOc5no[n+]([O-])c5S(=O)(=O)c5ccccc5)c4[C@@]2(CCN3C)CC1=O` (stereo partly drawn) [7Cc, 4–(4-((2-((((4bs,9R)-3,7-Dimethoxy-11-methyl-6-oxo-6,8a,9,10-tetrahydro-5H-9,4b-(epiminoethano)phenanthren-4-yl)oxy)carbonyl)benzoyl)oxy)butoxy)-3-(phenylsulfonyl)-1,2,5-oxadiazole 2-oxide], the IC50 was 1.94 ± 0.05 µM in assay [1]; 0.82 ± 0.02 µM in assay [3] (Homo sapiens, MDA-MB-231, 48 h, read-out: IC50 MDA-MB-231); 1.75 ± 0.15 µM in [7] (Homo sapiens, MCF7, 48 h, read-out: IC50 MCF-7); 27.5 ± 2.34 µM in [10]. Also, the “apoptotic portions of cells (two quadrants from the right side)” value in the assay on MDA-MB-231 cells [2] (0.41 μM) amounted to 16.66%; in the assay on MDA-MB-231 cells [2] (0.82 μM), 26.62%; with MDA-MB-231 cells [2] (1.64 μM) it was 53.28%. The “SI MDA-MB-231 (selectivity index)” value in assay [3] (SI = IC50(MCF-10A)/IC50(MDA-MB-231)) was determined as 33.57. The figures for the “percentage of cells with collapsed mitochondrial membrane potential (JC-1)” value with MDA-MB-231 cells [4] (0.41 μM), with MDA-MB-231 cells [4] (0.82 μM) and in the assay on MDA-MB-231 cells [4] (1.64 μM) were 16.40%, 31.01% and 49.98%, respectively. Besides, the figures for the “share of S phase in cell cycle” value with MDA-MB-231 cells [5] (0.41 μM), in the assay on MDA-MB-231 cells [5] (0.82 μM) and in the assay with MDA-MB-231 cells [5] (1.64 μM) were 49.10%, 57.27% and 64.15%, respectively. Moreover, the “share of G2 phase in cell cycle” value in the assay with MDA-MB-231 cells [5] (1.64 μM, control 10.09%) is given as 5.76%. For the same compound, the “share of G1 phase in cell cycle” value in the assay with MDA-MB-231 cells [5] (1.64 μM, control 44.52%) was found to be 30.09%. Further, in the assay on MDA-MB-231 cells [6], the “DNA damage (double-strand DNA breaks, comet tail)” value is given as “significant presence of endogenous DSBs was observed”. For the same compound, the “SI MCF-7 (selectivity index)” value in assay [7] (SI = IC50(MCF-10A)/IC50(MCF-7)) was 15.73. Moreover, the “time at which top volume of NO released was reached” value in assay [8] turned out to be 90 min. Also, the “NO release at 180 min” value in assay [8] (180 min) was 39.27 µmol/L. In addition, the “migration (wound closure)” value in the assay on MDA-MB-231 cells [9] was “inhibited migration”. The cellular adhesion entry with MDA-MB-231 cells [11] was “clear prevention of TNBC cellular adhesion”. For the same compound, the “invasion (cells permeated through transwell membrane)” value in the assay on MDA-MB-231 cells [12] is on record as “notably reduced the number of cells permeated through the membrane”.

These data come from PMC9272937, “Anti-breast cancer sinomenine derivatives via mechanisms of apoptosis induction and metastasis reduction” (Journal of Enzyme Inhibition and Medicinal Chemistry, 2022).
